# Source: patent US8673949B2 (Bristol-Myers Squibb Company, priority 2008, dated 2014)
# Values joined by “and” are separate entries in the source; they are usually repeats but may differ in a detail not shown here. Equal entries are not always repeated. Where two headings read alike, the source gives them in different places.
# Assays:
# neurofibrillary tangles = experiment: Gallyas silver staining for neurofibrillary tangles in Tg4510 mice; assay type: in vivo, mouse; details: cortex and hippocampus, vs vehicle
# Method: (§1) Mice were euthanized by cervical dislocation at 5. 5 months followed by decapitation. Brains were immediately removed and divided down the midline into two hemispheres. The right hemisphere was placed into 20 mL of 4% paraformaldehyde (prepared fresh on the day of sacrifice) and stored overnight at 4° C. The following day, the brains were transferred to a tube containing 20 mL TBS (pH 7.4, 20 mM TRIS, 100 mM NaCl) and then stored at 4° C. until processing. Right hemispheres were embedded in paraffin, sectioned at 5 microns, and mounted on positively charged glass slides. The slides were dried overnight in a 60° C. oven and stored at room temperature until stained. The left hemispheres were frozen (within 2 minutes) on dry ice.
# The Gallyas staining method was used to detect silver-positive neurofibrillary tangles and dystrophic neurites. Paraffin-embedded thin sections (5 microns) mounted on glass slides were deparaffinized and rehydrated via serial incubation in xylene (two times for 10 minutes each), 100% ethanol (two times for 10 minutes each), 95% MeOH/5% H2O2 (30 minutes), 95% ethanol (two times for 5 minutes each), 80% ethanol (two times for 5 minutes each), 50% ethanol (two times for 5 minutes each), and water (two times for 5 minutes each). […]
# [1] = Plasma, brain and liver levels of epothilone D after bolus IV in triple transgenic mice; assay type: in vivo, mouse; details: bolus IV 5 mpk; for concentration at […]: .33 hr
# Excerpt: (§2) To calculate an accurate brain half-life for a long half-life compound, measurements need to be taken for several half lives after a single dose.
# [2] = Plasma, brain and liver levels after oral gavage in C57BL/6 mice; assay type: in vivo, mouse
# Excerpt: Below, we first report the experimental detail for preparation and isolation of Compound III, and then the biological, in vivo data is described.
# [3] = Brain half-life of epothilone D in mice; assay type: in vivo, mouse; details: for half-life: mouse, brain
# Excerpt: as §2
# phosphorylated Tau (AT8) = experiment: AT8 phosphoTau immunohistochemistry in Tg4510 mice; assay type: in vivo, mouse
# Method: as §1
# Paraffin-embedded thin sections (5 microns) were deparaffinized and rehydrated to water in 3 changes of xylene, two changes of 100% ethanol, and 1 change of 95% ethanol, followed by rinsing in water. Antigen retrieval was performed by steaming the slides in 10 mM sodium citrate buffer, pH 6.0 for 30 minutes in a Black and Decker Steamer (Model # HS900) and then cooled for 30 minutes. […] After washing in TBS, the signal is detected using a Vectastain ABC Elite Kit (Vector Labs Burlingame, Calif.) for 1 hour followed by detection using the diaminobenzadine reagent from Vector labs. […]
# [4] = Brain half-life of epothilone D in rats; assay type: in vivo; details: 1 mg/kg, Rat, IV, 1 mpk
# Excerpt: as §2
# [5] = Plasma, brain and liver levels after bolus IV administration in nude mice; details: bolus IV 5 mpk; for concentration at 6 h / concentration at 24 h: nude, mouse, in vivo, iv, 5 mg/kg
# [6] = triple transgenic (Oddo et al. 2003), mouse, brain, 5 mg/kg, read-out: Brain conc
# [7] = triple transgenic (Oddo et al. 2003), mouse, plasma, 5 mg/kg, read-out: Plasma conc
# [8] = mouse, brain, 10 mg/kg, C57BL/6 mice, oral gavage 10 mpk, read-out: Brain conc
# [9] = mouse, brain, 35 mg/kg, C57BL/6 mice, oral gavage 35 mpk, read-out: Brain conc
# [10] = mouse, plasma, 10 mg/kg, C57BL/6 mice, oral gavage 10 mpk, read-out: Plasma conc
# [11] = mouse, plasma, 35 mg/kg, C57BL/6 mice, oral gavage 35 mpk, read-out: Plasma conc
smiles,measurement,setting,value
"C/C1=C/C[C@@H](/C(C)=C/c2csc(C)n2)OC(=O)C[C@H](O)C(C)(C)C(=O)[C@H](C)[C@@H](O)[C@@H](C)CCC1 [Epothilone D, epothilone D]",Gallyas silver staining: neurofibrillary tangles,neurofibrillary tangles; 1 mpk IP weekly,much lower levels of neurofibrillary tangles than did vehicle-treated mice
same,Gallyas silver staining: neurofibrillary tangles,neurofibrillary tangles; 10 mpk IP weekly,trend toward improvement
same,retention in brain tissue after a single dose,[1],at least 168 h
same,Plasma conc,[1]; 96 hr,<LLQ (0.6 nM)
same,Plasma conc,[1]; 168 hr,<LLQ (0.6 nM)
same,concentration at 24 h,"[1]; mouse, liver, 5 mg/kg, below LLQ, read-out: liver levels",< 49 nM
same,concentration at 0.05 h,[1]; [6],1130 nM
same,concentration at 0.17 h,[1]; [6],595 nM
same,concentration at 1 h,[1]; [6],422 nM
same,concentration at 3 h,[1]; [6],468 nM
same,concentration at 6 h,[1]; [6],141 nM
same,concentration at 16 h,[1]; [6],210 nM
same,concentration at 24 h,[1]; [6],82.7 nM
same,concentration at 96 h,"[1]; triple transgenic (Oddo et al. 2003), mouse, brain, 5 mg/kg, 96 hr, read-out: Brain conc",25.2 nM
same,concentration at 168 h,"[1]; triple transgenic (Oddo et al. 2003), mouse, brain, 5 mg/kg, 168 hr, read-out: Brain conc",16.3 nM
same,concentration at […],[1]; [6],529 nM
same,concentration at 0.05 h,[1]; [7],25100 nM
same,concentration at 0.17 h,[1]; [7],2000 nM
same,concentration at 1 h,[1]; [7],325 nM
same,concentration at 3 h,[1]; [7],70 nM
same,concentration at 6 h,[1]; [7],43 nM
same,concentration at 16 h,[1]; [7],0.8 nM
same,concentration at 24 h,[1]; [7],0.9 nM
same,concentration at […],[1]; [7],549 nM
same,Plasma conc,"[2]; C57BL/6 mice, oral gavage 10 mpk, 48 hr",(0.1 nM)
same,Plasma conc,"[2]; C57BL/6 mice, oral gavage 10 mpk, 96 hr",(0.1 nM)
same,Plasma conc,"[2]; C57BL/6 mice, oral gavage 35 mpk, 24 hr",(0.5 nM)
same,concentration at 1 h,[2]; [8],10.6 nM
same,concentration at 3 h,[2]; [8],7 nM
same,concentration at 4 h,[2]; [8],9.9 nM
same,concentration at 8 h,[2]; [8],6.4 nM
same,concentration at 13 h,[2]; [8],6.3 nM
same,concentration at 24 h,"[2]; mouse, brain, 10 mg/kg, C57BL/6 mice, oral gavage 10 mpk, 24 hr, read-out: Brain conc",9.1 nM
same,concentration at 48 h,"[2]; mouse, brain, 10 mg/kg, C57BL/6 mice, oral gavage 10 mpk, 48 hr, read-out: Brain conc",5.4 nM
same,concentration at 96 h,"[2]; mouse, brain, 10 mg/kg, C57BL/6 mice, oral gavage 10 mpk, 96 hr, read-out: Brain conc",3 nM
same,concentration at 1 hr,[2]; [9],61.3 nM
same,concentration at 5 hr,[2]; [9],76.9 nM
same,concentration at 24 hr,"[2]; mouse, brain, 35 mg/kg, C57BL/6 mice, oral gavage 35 mpk, 24 hr, read-out: Brain conc",118 nM
same,concentration at 1 h,[2]; [10],15.1 nM
same,concentration at 3 h,[2]; [10],3.9 nM
same,concentration at 4 h,[2]; [10],2.5 nM
same,concentration at 8 h,[2]; [10],1.4 nM
same,concentration at 13 h,[2]; [10],0.1 nM
same,concentration at 24 h,"[2]; mouse, plasma, 10 mg/kg, C57BL/6 mice, oral gavage 10 mpk, 24 hr, read-out: Plasma conc",0.2 nM
same,concentration at 1 hr,[2]; [11],52.7 nM
same,concentration at 5 hr,[2]; [11],3.6 nM
same,time brain levels were maintained,"[2]; oral dosing 10 and 35 mpk (also IV, Table 2)",more than 24 h
same,Half life (brain),"[3]; Mouse, IP, 10 mpk, 10 mg/kg",37 h and 45 h and 46 h
same,half-life,"[3]; intravenous, oral, intraperitoneal, mice, multiple routes of administration and dosages, read-out: brain half life, average (converted)",46 h
same,half-life,"[3]; ip, 1 mg/kg, Mouse, IP, 1 mpk, read-out: Half life (brain) (converted)",44 h
same,half-life,"[3]; ip, 10 mg/kg, Mouse, IP, 10 mpk, read-out: Half life (brain) (converted)",41 h
same,half-life,"[3]; iv, 5 mg/kg, Mouse, IV, 5 mpk, read-out: Half life (brain) (converted)",61 h
same,half-life,"[3]; po, 10 mg/kg, Mouse, Oral, 10 mpk, read-out: Half life (brain) (converted)",46 h
same,"AT8 phosphoTau staining, hippocampus CA1","phosphorylated Tau (AT8); 1 mpk IP weekly, vs vehicle",much less phosphoTau staining
same,"AT8 phosphoTau staining, hippocampus CA1",phosphorylated Tau (AT8); 10 mpk IP weekly,intermediate levels of phosphoTau staining
same,half-life,[4],31 h
same,brain levels versus liver levels,[5]; 6 and 24 h after dosing,high brain levels that exceeded liver levels
same,concentration at 6 h,[5]; Brain conc,2790 nM
same,concentration at 24 h,[5]; Brain conc,2050 nM
same,concentration at 6 h,[5]; Plasma conc,6 nM
same,concentration at 24 h,[5]; Plasma conc,1 nM
